Reference: ChEMBL document CHEMBL1201862, “PubChem BioAssay data set” (2004)
The source made the active and inactive calls.

Key:
[1] = molecular target: T1, Ubiquitin-conjugating enzyme E2 N (Homo sapiens, UniProt P61088); type: functional
T1 sequence (P61088 whole entry): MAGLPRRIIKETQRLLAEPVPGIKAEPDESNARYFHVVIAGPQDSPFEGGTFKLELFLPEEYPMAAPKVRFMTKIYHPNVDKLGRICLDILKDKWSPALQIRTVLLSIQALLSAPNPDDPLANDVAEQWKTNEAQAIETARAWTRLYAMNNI

Bcl-2-related protein A1 = molecular target: T2, Bcl-2-related protein A1 (Mus musculus, UniProt Q07440); type: functional;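 note: confirmatory dose–response counterscreen on Bfl-1, used to check hits from a UBC13 polyubiquitin inhibitor campaign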
T2 sequence (Q07440 whole entry): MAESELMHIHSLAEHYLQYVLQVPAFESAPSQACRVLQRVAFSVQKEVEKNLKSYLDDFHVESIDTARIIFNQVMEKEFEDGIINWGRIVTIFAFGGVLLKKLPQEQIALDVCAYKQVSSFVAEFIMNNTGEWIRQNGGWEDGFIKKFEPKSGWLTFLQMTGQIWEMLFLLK

[2] = molecular target: T1, Ubiquitin-conjugating enzyme E2 N; type: functional; remark: listed apart in the source
[3] = inhibitors of Vif binding to APOBEC3G peptide, primary screen, biochemical, TR-FRET, GST-Vif 1-94, biotin-A3G peptide, dose response retest (AID 1117319); type: functional;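 note: TR-FRET signal of purified GST-Vif binding a biotinylated A3G peptide; inhibitors lower the FRET signal by blocking Vif and A3G binding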
[4] = molecular target: DNA dC->dU-editing enzyme APOBEC-3A (Homo sapiens, UniProt P31941); assay: Dose Response confirmation of small molecule APOBEC3A DNA Deaminase Inhibitors via a fluorescence-based single-stranded DNA deaminase assay. [Related pubchem assays (depositor defined):AID493011, AID493024]; type: functional
[5] = molecular target: DNA dC->dU-editing enzyme APOBEC-3G (Homo sapiens, UniProt Q9HC16); type: functional;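 note: Dose-response counterscreen measuring inhibition of APOBEC3G DNA deaminase activity, run while confirming APOBEC3A inhibitors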
[6] = molecular target: T3, RNA-binding protein pos-1 (Caenorhabditis elegans, UniProt G5EF15); assay: inhibitors of POS-1/mex-3 RNA binding, dose response, biochemical, fluorescence polarization (AID 1964);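 note: purified POS-1 fused to maltose binding protein made in E. coli; potency of compounds blocking POS-1 binding to fluorescent RNA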
T3 sequence (G5EF15 whole entry): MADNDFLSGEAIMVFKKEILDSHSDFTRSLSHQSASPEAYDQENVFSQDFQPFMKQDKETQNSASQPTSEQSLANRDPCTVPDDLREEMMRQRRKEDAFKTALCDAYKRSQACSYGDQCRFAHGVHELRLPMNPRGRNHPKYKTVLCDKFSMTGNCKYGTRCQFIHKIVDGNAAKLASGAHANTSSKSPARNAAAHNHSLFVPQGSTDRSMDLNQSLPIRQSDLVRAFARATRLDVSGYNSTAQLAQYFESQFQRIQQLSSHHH

[7] = molecular target: T4, Zinc finger protein mex-5 (Caenorhabditis elegans, UniProt Q9XUB2); assay: MEX-5/TCR-2 RNA interaction inhibitors, dose response, biochemical, C. elegans, fluorescence polarization (AID 1960)
T4 sequence (Q9XUB2 whole entry): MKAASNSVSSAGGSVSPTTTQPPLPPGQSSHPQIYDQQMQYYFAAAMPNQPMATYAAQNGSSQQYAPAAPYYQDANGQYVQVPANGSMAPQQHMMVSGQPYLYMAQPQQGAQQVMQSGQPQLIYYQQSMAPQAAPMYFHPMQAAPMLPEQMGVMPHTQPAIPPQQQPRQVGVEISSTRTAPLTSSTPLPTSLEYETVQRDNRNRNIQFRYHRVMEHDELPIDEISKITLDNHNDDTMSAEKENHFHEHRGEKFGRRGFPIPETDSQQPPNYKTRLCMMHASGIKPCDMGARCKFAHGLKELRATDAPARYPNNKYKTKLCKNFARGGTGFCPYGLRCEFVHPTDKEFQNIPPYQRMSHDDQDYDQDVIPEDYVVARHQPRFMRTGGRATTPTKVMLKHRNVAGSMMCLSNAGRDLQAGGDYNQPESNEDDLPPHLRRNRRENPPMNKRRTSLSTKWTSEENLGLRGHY

[8] = molecular target: T5, Short transient receptor potential channel 4 (Mus musculus, UniProt Q9QUQ5); assay: mouse TRPC4 channel activators, dose response, cell-based, HEK293 TRPC4/mu-opioid, Fluo-4 calcium (AID 434937); type: functional
T5 sequence (Q9QUQ5 whole entry): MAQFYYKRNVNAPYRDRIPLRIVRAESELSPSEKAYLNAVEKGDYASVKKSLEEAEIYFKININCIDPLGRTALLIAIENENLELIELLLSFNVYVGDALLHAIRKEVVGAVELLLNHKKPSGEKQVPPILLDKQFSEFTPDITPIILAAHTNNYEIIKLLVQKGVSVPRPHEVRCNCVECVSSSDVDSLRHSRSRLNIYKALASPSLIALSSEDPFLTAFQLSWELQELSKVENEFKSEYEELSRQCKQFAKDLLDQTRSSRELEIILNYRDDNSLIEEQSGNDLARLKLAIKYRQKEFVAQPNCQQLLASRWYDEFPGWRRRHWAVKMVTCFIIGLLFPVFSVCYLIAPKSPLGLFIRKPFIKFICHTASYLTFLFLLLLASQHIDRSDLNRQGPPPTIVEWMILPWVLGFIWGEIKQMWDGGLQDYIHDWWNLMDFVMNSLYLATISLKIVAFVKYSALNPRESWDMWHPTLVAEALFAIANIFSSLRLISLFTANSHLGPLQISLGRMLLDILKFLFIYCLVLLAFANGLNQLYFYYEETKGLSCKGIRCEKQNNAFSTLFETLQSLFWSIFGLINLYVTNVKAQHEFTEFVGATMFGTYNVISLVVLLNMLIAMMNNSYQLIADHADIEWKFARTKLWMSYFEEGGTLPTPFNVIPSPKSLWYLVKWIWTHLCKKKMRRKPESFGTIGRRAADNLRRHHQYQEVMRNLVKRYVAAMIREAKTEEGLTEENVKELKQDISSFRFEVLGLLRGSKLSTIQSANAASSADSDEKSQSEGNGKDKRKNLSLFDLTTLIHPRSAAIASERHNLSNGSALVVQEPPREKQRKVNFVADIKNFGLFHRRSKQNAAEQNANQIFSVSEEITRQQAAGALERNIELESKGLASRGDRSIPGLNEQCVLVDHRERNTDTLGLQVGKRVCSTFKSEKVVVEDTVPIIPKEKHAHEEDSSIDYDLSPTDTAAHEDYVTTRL

[9] = molecular target: T6, Histone-lysine N-methyltransferase NSD2 (Homo sapiens, UniProt O96028); type: biochemical
T6 sequence (O96028 whole entry): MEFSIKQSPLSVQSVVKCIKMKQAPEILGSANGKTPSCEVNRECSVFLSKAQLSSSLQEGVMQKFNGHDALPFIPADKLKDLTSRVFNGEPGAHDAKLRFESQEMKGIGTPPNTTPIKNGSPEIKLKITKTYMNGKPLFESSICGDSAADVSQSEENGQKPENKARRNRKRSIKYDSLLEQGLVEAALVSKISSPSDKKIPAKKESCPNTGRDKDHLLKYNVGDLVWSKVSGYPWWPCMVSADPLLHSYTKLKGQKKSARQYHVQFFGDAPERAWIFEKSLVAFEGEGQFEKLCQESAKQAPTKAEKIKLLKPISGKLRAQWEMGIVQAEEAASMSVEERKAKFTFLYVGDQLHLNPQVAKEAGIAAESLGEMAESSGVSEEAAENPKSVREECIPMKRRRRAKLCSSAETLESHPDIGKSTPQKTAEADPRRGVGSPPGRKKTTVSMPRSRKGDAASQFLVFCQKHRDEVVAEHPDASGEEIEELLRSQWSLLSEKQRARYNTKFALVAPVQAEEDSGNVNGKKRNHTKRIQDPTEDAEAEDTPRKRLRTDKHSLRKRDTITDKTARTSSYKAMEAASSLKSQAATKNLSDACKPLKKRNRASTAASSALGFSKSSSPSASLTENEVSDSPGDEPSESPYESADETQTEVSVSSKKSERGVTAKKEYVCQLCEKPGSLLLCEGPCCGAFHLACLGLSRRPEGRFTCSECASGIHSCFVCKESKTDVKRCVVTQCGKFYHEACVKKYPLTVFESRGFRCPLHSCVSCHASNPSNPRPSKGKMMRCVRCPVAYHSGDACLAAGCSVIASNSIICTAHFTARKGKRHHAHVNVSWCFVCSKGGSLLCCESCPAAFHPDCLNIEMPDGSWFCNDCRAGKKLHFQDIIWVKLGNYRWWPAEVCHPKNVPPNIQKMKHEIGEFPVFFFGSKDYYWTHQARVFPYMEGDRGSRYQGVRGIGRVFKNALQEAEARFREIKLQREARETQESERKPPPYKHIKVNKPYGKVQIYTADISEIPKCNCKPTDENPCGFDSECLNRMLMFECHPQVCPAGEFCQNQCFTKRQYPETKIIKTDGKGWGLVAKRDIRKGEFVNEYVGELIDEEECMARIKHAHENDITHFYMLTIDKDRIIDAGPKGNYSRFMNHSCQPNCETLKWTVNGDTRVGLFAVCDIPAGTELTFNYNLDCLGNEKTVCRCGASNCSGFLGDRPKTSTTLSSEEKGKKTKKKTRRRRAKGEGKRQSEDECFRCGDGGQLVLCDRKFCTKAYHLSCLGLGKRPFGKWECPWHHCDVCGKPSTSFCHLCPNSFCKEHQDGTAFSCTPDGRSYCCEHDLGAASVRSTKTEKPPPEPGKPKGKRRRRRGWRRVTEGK

[10] = cytotoxicity toward NIH3T3 fibroblasts, dose response, counter-screen, cell-based, ATP luminescence, mouse fibroblasts (AID 2010); type: functional;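 note: cells exposed to compound for about 90 hours before reading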
[11] = inhibitors of intracellular T. cruzi replication, confirmation, NIH3T3 host cells, beta-gal luminescence (AID 2044); type: functional, cell-based;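 note: intracellular parasites grown in NIH/3T3 mouse fibroblasts as host cells; luminescent beta-galactosidase reporter signal from transgenic T. cruzi replicating inside host cells; inhibitors lower the luminescence signal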
[12] = P. falciparum Dd2 growth inhibitors, dose response, SYBR Green, dry powder samples (AID 1159566); type: functional, cell-based;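 note: potency for growth inhibition with lower SYBR green DNA signal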
[13] = HepG2 cell cytotoxicity, dose response, cytotoxicity control, plate reader, dry powder samples (AID 1159569); type: functional, cell-based;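 note: inhibitor potency with signal falling toward the positive control level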
[14] = P. falciparum 3D7-ScDHODH growth inhibitors, dose response, SYBR Green, dry powder samples (AID 1159570); type: functional, cell-based;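 note: parasite growth measured after 72 hours of compound exposure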
[15] = P. falciparum Dd2 growth inhibitors, dose response, SYBR Green, cherry-picked samples (AID 1159567); type: functional, cell-based
[16] = P. falciparum ATP4 D1247Y mutant growth inhibitors, dose response, NITD609-resistant line, SYBR Green, dry powder (AID 1159571); type: functional, cell-based;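 note: parasites synchronized at ring stage by sorbitol before testing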

Sequence of DNA dC->dU-editing enzyme APOBEC-3A (P31941 whole entry): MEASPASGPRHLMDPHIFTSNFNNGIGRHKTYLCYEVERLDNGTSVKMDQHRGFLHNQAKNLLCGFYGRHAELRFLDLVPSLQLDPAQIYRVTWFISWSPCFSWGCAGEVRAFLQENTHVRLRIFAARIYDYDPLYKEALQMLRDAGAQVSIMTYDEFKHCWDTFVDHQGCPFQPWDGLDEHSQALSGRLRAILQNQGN
Sequence of DNA dC->dU-editing enzyme APOBEC-3G (Q9HC16 whole entry, the tested form may be a part): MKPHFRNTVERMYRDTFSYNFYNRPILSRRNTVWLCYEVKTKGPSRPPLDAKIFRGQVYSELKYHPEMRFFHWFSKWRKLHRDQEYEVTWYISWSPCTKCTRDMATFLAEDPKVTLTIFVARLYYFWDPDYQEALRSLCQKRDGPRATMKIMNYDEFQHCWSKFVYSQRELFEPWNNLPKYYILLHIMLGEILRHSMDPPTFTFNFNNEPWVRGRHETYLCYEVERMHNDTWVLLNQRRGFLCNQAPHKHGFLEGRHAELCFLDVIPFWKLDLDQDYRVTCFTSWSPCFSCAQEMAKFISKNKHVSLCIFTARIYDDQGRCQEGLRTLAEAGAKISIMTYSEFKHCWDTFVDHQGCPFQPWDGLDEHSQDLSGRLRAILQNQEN

SMILES: Cc1ccc2cc3c(nc2c1)N(c1ccccc1)CC3
- IC50 [1]: 18.4 µM (active)
- IC50 (Bcl-2-related protein A1): > 20 µM (inactive)
- IC50 [2]: > 20 µM (inactive)

SMILES: Nc1nc(SCc2nc(-c3ccccc3)no2)nc(O)c1-c1ccccc1
- IC50 [3]: > 100 µM (active)

SMILES: Cc1ccc(C(=O)NNC(=O)c2nn(-c3ccc(F)cc3)ccc2=O)cc1
- IC50 [1]: 7.29 µM (active)
- IC50 (Bcl-2-related protein A1): > 20 µM (inactive)
- IC50 [2]: 8.19 µM (active)

SMILES: O=C(O)c1cc2nc(-c3cccs3)cc(C(F)(F)F)n2n1
- IC50 [4]: 12.1 µM (active)
- IC50 [5]: > 100 µM (inactive)

SMILES: O=C(O)c1cccc(-n2cccc2/C=C2\NC(=O)N(Cc3ccc(F)cc3)C2=O)c1
- IC50 [4]: 11.4 µM (active)
- IC50 [5]: 29.7 µM (active)
- EC50 [6]: > 300 µM (not active)
- EC50 [7]: > 150 µM (not active)

SMILES: CNCCCOc1ccc2c(c1)CCC2
- EC50 [8]: 4.73 µM (active)
- AC50 [9]: > 20 µM (inactive)

SMILES: Cc1ccc(N(C(=O)c2snc(C(N)=O)c2N)C(C(=O)NCCC(C)C)c2ccco2)cc1 (centres undefined)
- IC50 [1]: 17 µM (active)
- EC50 [10]: > 60 µM (not active)
- IC50 (Bcl-2-related protein A1): > 20 µM (inactive)
- IC50 [2]: 10.9 µM (active)
- EC50 [11]: 1.1 µM (active)

SMILES: O=C1c2cccc3cccc(c23)C(=O)N1Cc1cccnc1
- IC50 [1]: 19.1 µM (active)
- IC50 (Bcl-2-related protein A1): > 20 µM (inactive)
- IC50 [2]: 18.1 µM (active)

SMILES: Nc1ccc2[nH]c(-c3cccc(-c4nc5cc(N)ccc5[nH]4)n3)nc2c1
- IC50 [1]: 9 µM (active)
- IC50 (Bcl-2-related protein A1): 5.82 µM (active)
- IC50 [2]: 8.28 µM (active)
- EC50 [6]: > 300 µM (not active)
- EC50 [7]: > 300 µM (not active)

SMILES: C=CC[n+]1c2n(c3ccccc3c1=O)CCCCC2
- IC50 [4]: 3.57 µM (active)
- IC50 [5]: 6.84 µM (active)

SMILES: O=C(NCc1ccco1)C1CCCN(S(=O)(=O)c2cccc3nsnc23)C1 (centres undefined)
- IC50 [3]: > 100 µM (active)

SMILES: CN1CCN(C(=O)c2ccc(N(C)S(=O)(=O)c3cccs3)cc2)CC1
- IC50 [3]: > 100 µM (active)

SMILES: CN1c2ccsc2/C(=N/NC(=O)c2c(F)cccc2F)CS1(=O)=O
- IC50 [3]: > 100 µM (active)

SMILES: N#Cc1ccc(-c2ccc([C@@H]3[C@@H]4CN(C(=O)C5CCCC5)C[C@H]3N4)cc2)cc1
- AC50 [12]: 2.25 µM (active)
- AC50 [13]: 51 µM (active)
- AC50 [14]: 3.48 µM (active)
- AC50 [15]: 2.72 µM (active)
- AC50 [16]: 3.53 µM (active)

SMILES: COc1ccc2c3c([nH]c2c1)[C@H](CO)N(C(=O)Nc1ccc(F)cc1)CC31CCN(Cc2cc(-c3ccccc3)on2)CC1
- AC50 [12]: 0.452 µM (active)
- AC50 [13]: 30.3 µM (active)
- AC50 [14]: 1.47 µM (active)
- AC50 [15]: 1.43 µM (active)
- AC50 [16]: 0.876 µM (active)

SMILES: C[C@@H]1CN([C@H](C)CO)C(=O)c2cccc(NC(=O)c3nc4ccccc4s3)c2O[C@H]1CN(C)C(=O)NC1CCCCC1
- AC50 [12]: 0.196 µM (active)
- AC50 [13]: > 100 µM (inactive)
- AC50 [14]: 0.114 µM (active)
- AC50 [15]: 2.73 µM (active)
- AC50 [16]: 0.152 µM (active)

SMILES: O=c1cc(O)nc(SCc2ccccc2Cl)[nH]1
- IC50 [3]: > 100 µM (active)
